Data: ChEMBL document CHEMBL4406832, “Discovery of novel series of 2-substituted benzo[d]oxazol-5-amine derivatives as multi-target directed ligands for the treatment of Alzheimer's disease” (Eur J Med Chem, 2019)
Calls of active or inactive are those of the source. The calls are words filed in the database; no cut-off is given here.

Columns and labels:
[1] = Permeability of the compound in pH 7.4 PBS buffer incubated for 18 hrs by PAMPA-BBB assay
[2] = Selectivity index, ratio of IC50 for equine serum BuChE to IC50 for electric eel AChE
Acetylcholinesterase [3] = target: T1, Acetylcholinesterase (Electrophorus electricus, UniProt O42275); assay: Inhibition of electric eel AChE using acetylthiocholine iodide as substrate preincubated with enzyme for 30 mins followed by substrate addition and measured for 1 min by DTNB reagent-based spectrophotometric analysis
Cholinesterase [4] = target: T2, Cholinesterase (Equus caballus, UniProt P81908); assay: Inhibition of equine serum BuChE using butyrylthiocholine iodide as substrate preincubated for 30 mins followed by substrate addition and measured for 1 min by DTNB reagent-based spectrophotometric analysis
[5] = Toxicity in Wistar rat assessed as change in body weight at 300 mg/kg measured for 72 hrs; assay type: organism-based; details: in vivo
[6] = target: Acetylcholinesterase (Electrophorus electricus) (UniProt O42275); assay: Non-competitive inhibition of electric eel AChE assessed as decrease in Vmax at 25 to 75 nM using varying levels of acetylthiocholine iodide as substrate measured every 2 mins for 10 mins by reciprocal Lineweaver-Burk plot analysis
Rattus norvegicus [7] = assay: (§1) Improvement in learning and spatial memory in icv infused amyloid beta (1 to 42)-induced Wistar rat model of Alzheimer's disease assessed as increase in time spent in platform zone at 10 mg/kg, po administered daily for 7 days starting from 7 days post surgery and measured after 6 days by Morris water maze test; assay type: functional, organism-based
[8] = Acute toxicity in Wistar rat assessed as animal death measured for 72 hrs by OCED guideline method; details: in vivo
SH-SY5Y [9] = assay: Neuroprotective activity against amyloid beta (1 to 42)-induced cytotoxicity in human SH-SY5Y cells assessed as increase in cell viability at 10 to 20 uM measured after 72 hrs by MTT assay; assay type: functional, cell-based
Rattus norvegicus [10] = organism: Rattus norvegicus; assay: Ex vivo inhibition of AChE in brain of scopolamine-induced Wistar rat model of amnesia pretreated for 7 days followed by scopolamine challenge and measured after 30 mins using acetylthiocholine iodide as substrate by Ellman's method; assay type: functional, organism-based
Cholinesterase [11] = target: T2, Cholinesterase; assay: Non-competitive inhibition of equine serum BuChE using varying levels of butyrylthiocholine iodide as substrate measured at 2 mins interval for 10 mins by Dixon plot analysis
Rattus norvegicus [12] = assay: as §1, with “number of” for “time spent in”, “crossing” for “zone”; assay type: functional, organism-based
Rattus norvegicus [13] = assay: as §1, with “reduction” for “increase”, “degeneration of neuron” for “time spent”, “hippocampal region” for “platform zone”, “H and E staining-based microscopic analysis” for “Morris water maze test”; assay type: functional, organism-based
SH-SY5Y [14] = assay: Neuroprotective activity against amyloid beta (1 to 42)-induced cytotoxicity in human SH-SY5Y cells assessed as increase in cell viability at 40 to 80 uM measured after 72 hrs by MTT assay; assay type: functional, cell-based
Rattus norvegicus [15] = assay: as §1, with “reduction” for “increase”, “escape latency” for “time spent in platform zone”, “daily for 5” for “after 6”; assay type: functional, organism-based
[16] = target: Amyloid-beta precursor protein (Homo sapiens, UniProt P05067); assay: Inhibition of human amyloid beta (1 to 42) self-induced aggregation at 5 to 20 uM after 48 hrs by Thioflavin T based fluorometric assay
Rattus norvegicus [17] = organism: Rattus norvegicus; assay: Cognitive enhancing effect in scopolamine-induced Wistar rat model of amnesia assessed as increase in spontaneous alteration pretreated for 7 days followed by scopolamine challenge and measured after 30 mins by Y-maze test; assay type: functional, organism-based
Acetylcholinesterase [18] = target: T1, Acetylcholinesterase; assay: Non-competitive inhibition of electric eel AChE using varying levels of acetylthiocholine iodide as substrate measured at 2 mins interval for 10 mins by Dixon plot analysis
[19] = target: Acetylcholinesterase (Electrophorus electricus) (UniProt O42275); assay: Inhibition of electric eel AChE-induced amyloid beta (1 to 42) aggregation at 5 to 20 uM after 48 hrs by thioflavin T-based fluorometric assay
Rattus norvegicus [20] = assay: as §1, with “reduction” for “increase”, “disordered neuron” for “time spent”, “hippocampal region” for “platform zone”, “H and E staining-based microscopic analysis” for “Morris water maze test”; assay type: functional, organism-based
[21] = target: Cholinesterase (Equus caballus) (UniProt P81908); assay: Non-competitive inhibition of equine serum BuChE assessed as decrease in Vmax at 0.5 to 1.5 uM using varying levels of butyrylthiocholine iodide as substrate measured every 2 mins for 10 mins by reciprocal Lineweaver-Burk plot analysis
[22] = target: Cholinesterase (Equus caballus) (UniProt P81908); assay: Non-competitive inhibition of equine serum BuChE assessed as decrease in Km at 0.5 to 1.5 uM using varying levels of butyrylthiocholine iodide as substrate measured every 2 mins for 10 mins by reciprocal Lineweaver-Burk plot analysis
[23] = target: Acetylcholinesterase (Electrophorus electricus) (UniProt O42275); assay: Non-competitive inhibition of electric eel AChE assessed as decrease in Km at 25 to 75 nM using varying levels of acetylthiocholine iodide as substrate measured every 2 mins for 10 mins by reciprocal Lineweaver-Burk plot analysis

T1 sequence (O42275 whole entry): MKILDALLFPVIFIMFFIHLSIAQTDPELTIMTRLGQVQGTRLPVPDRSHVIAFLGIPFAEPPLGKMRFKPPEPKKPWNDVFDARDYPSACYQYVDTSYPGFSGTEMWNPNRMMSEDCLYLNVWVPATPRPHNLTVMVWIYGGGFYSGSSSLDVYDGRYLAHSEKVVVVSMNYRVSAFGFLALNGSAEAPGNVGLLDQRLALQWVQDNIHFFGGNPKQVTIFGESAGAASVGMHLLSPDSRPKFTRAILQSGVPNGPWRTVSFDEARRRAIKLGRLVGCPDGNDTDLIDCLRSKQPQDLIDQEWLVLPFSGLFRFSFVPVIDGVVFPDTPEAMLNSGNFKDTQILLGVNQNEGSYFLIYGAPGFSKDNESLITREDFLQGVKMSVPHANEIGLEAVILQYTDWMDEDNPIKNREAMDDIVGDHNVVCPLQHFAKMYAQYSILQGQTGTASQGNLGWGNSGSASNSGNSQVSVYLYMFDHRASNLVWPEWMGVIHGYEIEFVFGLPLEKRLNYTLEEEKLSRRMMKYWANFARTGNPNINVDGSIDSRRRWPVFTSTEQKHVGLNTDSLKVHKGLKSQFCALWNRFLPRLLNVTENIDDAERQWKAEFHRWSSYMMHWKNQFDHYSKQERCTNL
T2 sequence (P81908 whole entry): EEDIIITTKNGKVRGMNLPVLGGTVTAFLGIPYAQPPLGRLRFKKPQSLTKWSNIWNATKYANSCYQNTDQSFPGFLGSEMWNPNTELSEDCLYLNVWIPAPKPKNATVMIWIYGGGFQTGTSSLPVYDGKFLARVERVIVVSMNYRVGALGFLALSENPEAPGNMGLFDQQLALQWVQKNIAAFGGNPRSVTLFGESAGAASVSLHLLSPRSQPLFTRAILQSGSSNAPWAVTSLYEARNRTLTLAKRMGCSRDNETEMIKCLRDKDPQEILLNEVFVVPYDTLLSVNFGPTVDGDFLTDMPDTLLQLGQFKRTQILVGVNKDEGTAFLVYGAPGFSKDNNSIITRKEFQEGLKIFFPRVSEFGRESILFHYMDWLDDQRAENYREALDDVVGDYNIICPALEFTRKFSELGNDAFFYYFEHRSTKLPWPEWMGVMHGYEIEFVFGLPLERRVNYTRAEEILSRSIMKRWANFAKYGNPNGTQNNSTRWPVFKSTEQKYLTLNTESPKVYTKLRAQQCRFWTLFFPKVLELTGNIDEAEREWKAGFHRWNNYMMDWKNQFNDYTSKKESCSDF
Chain of Acetylcholinesterase (Electrophorus electricus) (O42275 24-633 limits assumed): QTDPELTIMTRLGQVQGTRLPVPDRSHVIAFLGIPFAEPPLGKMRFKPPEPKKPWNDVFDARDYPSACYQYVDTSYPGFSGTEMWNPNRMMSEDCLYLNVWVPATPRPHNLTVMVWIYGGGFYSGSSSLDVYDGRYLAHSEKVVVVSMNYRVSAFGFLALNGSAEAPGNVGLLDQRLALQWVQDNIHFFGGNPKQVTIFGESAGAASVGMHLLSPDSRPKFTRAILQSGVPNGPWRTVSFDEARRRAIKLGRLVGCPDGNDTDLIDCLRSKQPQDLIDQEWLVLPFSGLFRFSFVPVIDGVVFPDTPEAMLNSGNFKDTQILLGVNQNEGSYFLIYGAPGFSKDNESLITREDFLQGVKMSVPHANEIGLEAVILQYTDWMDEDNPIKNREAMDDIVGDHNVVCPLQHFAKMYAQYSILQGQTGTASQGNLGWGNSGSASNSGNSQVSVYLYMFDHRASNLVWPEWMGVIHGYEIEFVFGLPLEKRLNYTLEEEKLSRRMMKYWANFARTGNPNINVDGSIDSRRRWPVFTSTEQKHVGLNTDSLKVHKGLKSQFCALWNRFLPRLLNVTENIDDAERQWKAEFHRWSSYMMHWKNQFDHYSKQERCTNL
Chain of Cholinesterase (Equus caballus) (P81908 whole entry): as the sequence (P81908 whole entry) above
Chain of Amyloid-beta precursor protein (P05067 whole entry): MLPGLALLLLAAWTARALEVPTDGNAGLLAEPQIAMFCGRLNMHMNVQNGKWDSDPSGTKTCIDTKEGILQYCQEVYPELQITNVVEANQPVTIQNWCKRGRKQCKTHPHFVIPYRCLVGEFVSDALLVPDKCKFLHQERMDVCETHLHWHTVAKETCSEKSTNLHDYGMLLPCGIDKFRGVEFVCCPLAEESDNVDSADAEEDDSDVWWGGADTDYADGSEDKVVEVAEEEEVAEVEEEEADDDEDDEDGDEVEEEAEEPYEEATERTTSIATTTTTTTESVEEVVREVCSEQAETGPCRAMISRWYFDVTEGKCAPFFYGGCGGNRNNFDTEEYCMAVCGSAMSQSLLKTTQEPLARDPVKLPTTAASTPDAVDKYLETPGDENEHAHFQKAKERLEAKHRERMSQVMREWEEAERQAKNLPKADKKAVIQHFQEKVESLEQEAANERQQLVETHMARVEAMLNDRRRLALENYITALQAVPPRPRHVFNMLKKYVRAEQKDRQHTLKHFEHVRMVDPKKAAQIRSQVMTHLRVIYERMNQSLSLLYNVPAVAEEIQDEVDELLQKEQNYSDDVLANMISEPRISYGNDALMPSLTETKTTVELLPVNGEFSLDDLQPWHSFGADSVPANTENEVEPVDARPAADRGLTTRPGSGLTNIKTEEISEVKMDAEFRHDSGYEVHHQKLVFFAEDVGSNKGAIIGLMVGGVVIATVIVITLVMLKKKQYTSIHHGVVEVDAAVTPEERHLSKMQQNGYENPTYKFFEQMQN

| SMILES | Papp at 18 h [1] [×10⁻⁶ cm/s] | Ratio IC50 [2] | IC50 (Acetylcholinesterase [3]) [µM] | IC50 (Cholinesterase [4]) [µM] | also measured |
| --- | --- | --- | --- | --- | --- |
| COc1ccc(CN2CCN(c3nc4cc(N)ccc4o3)CC2)cc1 | 9.49 | 8.4 | 0.748 | 6.33 |  |
| COc1ccc(N2CCN(c3nc4cc(N)ccc4o3)CC2)cc1 | 10.5 | 6.1 | 2.1 | 13 |  |
| Nc1ccc2oc(N3CCN(Cc4ccc(Br)cc4)CC3)nc2c1 | 11.3 | 7.8 | 0.379 | 2.97 |  |
| Nc1ccc2oc(N3CCN(Cc4ccc(Cl)cc4)CC3)nc2c1 | 10.7 | 5.1 | 0.747 | 3.85 |  |
| Nc1ccc2oc(N3CCN(c4ccc(F)cc4)CC3)nc2c1 | 10.7 | 4.4 | 1.44 | 6.48 |  |
| Nc1ccc2oc(N3CCN(C(=O)c4ccc(F)cc4)CC3)nc2c1 | 9.67 | 11.1 | 0.073 | 0.817 |  |
| Nc1ccc2oc(N3CCN(c4ccc(Cl)cc4)CC3)nc2c1 | 10.6 | 5.6 | 1.96 | 11.1 |  |
| Nc1ccc2oc(N3CCN(c4ccc(Br)cc4)CC3)nc2c1 | 10.5 | 8.3 | 1.05 | 8.76 |  |
| CC(C)c1ccc(CN2CCN(c3nc4cc(N)ccc4o3)CC2)cc1 | 11.6 | 11.9 | 0.943 | 11.3 |  |
| Nc1ccc2oc(NC3CCN(Cc4ccccc4)CC3)nc2c1 | 9.47 | 4 | 0.559 | 2.27 |  |
| COc1cccc(C(=O)N2CCN(c3nc4cc(N)ccc4o3)CC2)c1 | 9.54 | 21.3 | 0.55 | 11.7 |  |
| Nc1ccc2oc(N3CCN(C(=O)c4cccc(Cl)c4)CC3)nc2c1 | 10.4 | 18.9 | 0.241 | 4.56 |  |
| Cc1ccc(CN2CCN(c3nc4cc(N)ccc4o3)CC2)cc1 | 10.6 | 6.4 | 0.807 | 5.19 |  |
| COc1ccccc1C(=O)N1CCN(c2nc3cc(N)ccc3o2)CC1 | 9.21 | 7.9 | 0.927 | 7.38 |  |
| Nc1ccc2oc(N3CCOCC3)nc2c1 | 7.44 | 4.5 | 7.03 | 32.3 |  |
| Nc1ccc2oc(N3CCN(c4ccccc4)CC3)nc2c1 | 10.3 | 8 | 2.09 | 16.8 |  |
| Nc1ccc2oc(N3CCN(C(=O)c4ccccc4Br)CC3)nc2c1 | 10.6 | 13.9 | 0.445 | 6.19 |  |
| Nc1ccc2oc(N3CCN(Cc4ccc(F)cc4)CC3)nc2c1 | 10.5 | 5.9 | 0.525 | 3.11 |  |
| Nc1ccc2oc(N3CCN(C(=O)c4ccc(Br)cc4)CC3)nc2c1 | 10.8 | 20.8 | 0.052 | 1.08 | Activity [5]: Toxic; inhibition [6]: Active; Activity (Rattus norvegicus [7]): Active; Activity [8]: Toxic; Activity (SH-SY5Y [9]): inactive; inhibition (Rattus norvegicus [10]): Dose-dependent effect; Ki (Cholinesterase [11]): 0.86 µM; Activity (Rattus norvegicus [12]): Active; Activity (Rattus norvegicus [13]): Active; Activity (SH-SY5Y [14]): Active; Activity (Rattus norvegicus [15]): Active; inhibition [16]: Active; Activity (Rattus norvegicus [17]): Dose-dependent effect; Ki (Acetylcholinesterase [18]): 0.03 µM; inhibition [19]: Active; Activity (Rattus norvegicus [20]): Active; inhibition [21]: Active; inhibition [22]: Active; inhibition [23]: Active |
